From patent publication US20010046497A1, “G-protein coupled receptor and methods” (priority 2000, published 2001) come the findings set out here.

SMILES strings stand for the structures.

Type in all cases: cell-based
The target of experiment [1] is T1, SP168 receptor (Homo sapiens, UniProt Q9H244). The experiment is described as follows: FLIPR Ca2+ assay, SP168 co-transfected with Gq/i3 in NIH3T3 cells (agonists). The arrangement: expressed in transfected cells; host or cells: NIH3T3 cells, co-transfected with Gq/i3. To be noted: for EC50: FLIPR, peak Ca2+ increment, SP168 + Gq/i3 transfected cells. The method, then: (§1) In order to identify SP168 receptor ligands the SP168 open reading frame was subcloned into the pcDNA3.1 expression vector under the control of the CMV promoter and transfected into mammalian cells. After allowing two days for receptor expression, the transfected cells were seeded into 96 well plates, loaded with the Ca^2+ sensitive Fluo-3AM dye and challenged with various compounds. The peak increments in Ca^2+ evoked by the test compounds were measured using the Fluorometric Inaging Plate Reader (FLIPR) system. The endogenous ligand of the SP168 receptor was purified from rat spinal cords using a series of chromatography steps and its structure was identified as being ADP by Mass spectroscopy. […] In addition to ADP, other agonists were also identified for SP168.
T1 sequence (Q9H244 whole entry): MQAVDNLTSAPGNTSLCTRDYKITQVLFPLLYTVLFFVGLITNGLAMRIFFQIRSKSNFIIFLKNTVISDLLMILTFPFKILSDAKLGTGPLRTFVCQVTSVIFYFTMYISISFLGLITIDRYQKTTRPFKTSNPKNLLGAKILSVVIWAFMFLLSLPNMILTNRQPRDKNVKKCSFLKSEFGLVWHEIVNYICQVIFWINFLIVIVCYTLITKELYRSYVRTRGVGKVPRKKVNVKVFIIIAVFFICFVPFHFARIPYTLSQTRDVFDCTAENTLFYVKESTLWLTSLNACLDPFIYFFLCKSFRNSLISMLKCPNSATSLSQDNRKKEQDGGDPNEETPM
SP168 receptor cDNA was subdloned into the pcDNA3.1 expression vector (Invitrogen) and transiently co-transfected with chimera G protein Gq/i3 into CHO-DHFR^− (ATCC CRL-9096) cells using lipofectamine (Gibco- BRL). Chimera G protein Gq/i3 was constructed by replacing the C-terminus five amino acid residues of human Gqa with the five amino acid residue of human Gi3a (Conklin et al., Nature, 363, p274-276). pCDNA 3.1 vector DNA was also co-transfected with chimera G protein Gq/i3 as a negative control. The transfected cells were seeded into 96 well plates and incubated overnight at 37° C. in a tissue culture incubator. The growth medium was aspirated and replaced with 100 μl of loading medium (DMEM containing 1% FBS, […] Fluo-3-AM/10% pluronic acid and 2.5 mM Probenecid) and incubated for 1 hour at 37° C. The cells were subsequently washed 3 times with Hank's BSS buffer containing 20 mM HEPES, 2.5 mM Probenecid, and 0.1% BSA using the gentle setting in a Denley cell washer (Denley Instruments). The washed cells were placed in a Fluorometric Imaging Plate Reader (FLIPR) and changes in cellular fluorescence recorded after the addition of various dilutions of tissue extract fractions.
(§2) Pharmacology of SP168—The pharmacological profile of SP168 was fuirther characterized by using the FLIPR and cAMP assays. SP168 was co-transfected with Gq/i3 to NIH3T3 cells, and a variety of nucleotides were screened by the FLIPR assay. […] EC50 for background ATP was about 1600 rLM, which was similar to 2-C1-ATP but was 20 fold higher than ADP. Therefore, even if ATP was included, the order of agonist potency was 2-MeS-ATP=2-MeS-ADP>ADP=ADPPS>ATPyS=ATP.

Experiment [2] has as its target T1, SP168 receptor. As to the kind of experiment: cAMP assay (inhibition of adenylyl cyclase). The arrangement: expressed in transfected cells. The note with it: adenylyl cyclase / cAMP pathway. The method, then: as §1
The SP168 receptor cDNA was stably transfected into CHO-DHFR cells according standard procedures. The SP168 receptor stable cell line and wild type cell grown on 12-well plates were incubated for 2 hr with […] of medium plus 5 μCi of [3H]adenine/ml. Then 50 μl of Hepes (250 mM, pH 7.5, 50 μM Forskolin, 200 μM IBMX) with the compound to be screened was added to the cells and incubated for 10 minutes at 37 ° C. Incubations were terminated by addition of 0.8 ml of 5% trichloroacetic acid. [^3H]cAMP was purified using Dowex and alumina chromatography as previously described (Harden et al., Mol. Pharmacol. 21:570-580, 1982).
Background: Cyclic AMP is a second messenger, typically raised through Gs and lowered through Gi signalling.

The subject of experiment [3] is NIH3T3. The experiment is described as follows: FLIPR assay, background response of NIH3T3 cells. The note with it: fold higher than ADP.
From the text: as §2

On to `Nc1nc(Cl)nc2c1ncn2[C@@H]1O[C@H](COP(=O)(O)OP(=O)(O)OP(=O)(O)O)[C@@H](O)[C@H]1O` [2-Cl-ATP], for which the EC50 (usually the concentration needed to bring the measured effect to its halfway point) in experiment [1] came out at 470 nM.
Still for that read-out and setting: in the case of `CSc1nc(N)c2ncn([C@@H]3O[C@H](COP(=O)(O)OP(=O)(O)O)[C@@H](O)[C@H]3O)c2n1` [2-MeS-ADP] it was 2.3 nM; in that of `CSc1nc(N)c2ncn([C@@H]3O[C@H](COP(=O)(O)OP(=O)(O)OP(=O)(O)O)[C@@H](O)[C@H]3O)c2n1` [2-MeS-ATP], 3.4 nM.
For `Nc1ncnc2c1ncn2[C@@H]1O[C@H](COP(=O)(O)OP(=O)(O)O)[C@@H](O)[C@H]1O` [ADP, 5′-adenosine diphosphate], in experiment [1], the EC50 turned out to be 74 nM. For the same compound, in experiment [2], the “activation of the SP168 receptor” value is given as “activate the SP168 receptor through inhibition of adenylyl cyclase”.
In the case of `Nc1ncnc2c1ncn2[C@@H]1O[C@H](COP(=O)(O)OP(O)(O)=S)[C@@H](O)[C@H]1O` [ADPβS], in experiment [1], the EC50 was 89 nM.
`Nc1ncnc2c1ncn2[C@@H]1O[C@H](COP(=O)(O)OP(=O)(O)OP(=O)(O)O)[C@@H](O)[C@H]1O` [ATP]: the “EC50 of background ATP relative to ADP” value in experiment [3] was 20 fold. For the same compound, the “shift of dosage curve by SP168 transfection” value in experiment [1] (NIH3T3, FLIPR) is given as “did not induce the shift of dosage curve”.
Consider `Nc1ncnc2c1ncn2[C@@H]1O[C@H](COP(=O)(O)OP(=O)(O)OP(O)(O)=S)[C@@H](O)[C@H]1O` [ATPγS], for which the EC50 in experiment [1] was 1200 nM.
